Reference: article PMC4359373, “Mechanistic insight into the conserved allosteric regulation of periplasmic proteolysis by the signaling molecule cyclic-di-GMP” (eLife, 2014)
Several values for one entry are separate records, joined by “and”; a condition that tells them apart may be missing. Equal entries are not always repeated.

Assays:
[1] = target: T1, LapD (LapD-sfGFP, full-length), with LapG (Pseudomonas fluorescens, UniProt Q3KK31); experiment: UV cross-linking of LapG-V205pAzF to LapD-sfGFP, in-gel fluorescence; assay type: binding; conditions: 2 μM LapD-sfGFP, 1 μM LapG, 2.5 mM CaCl2, pH 7.5, room temperature; detergent-solubilized; concentration range of sharp transition, not an EC50
T1 construct: full-length transmembrane LapD with C-terminal TEV site-sfGFP-His6, E. coli, detergent-solubilized (LMNG/CHAPS); LapG without signal peptide carrying para-azidophenylalanine at V205, sfGFP cut off; with Periplasmic cysteine protease LapG
T1 sequence (Q3KK31 1-648): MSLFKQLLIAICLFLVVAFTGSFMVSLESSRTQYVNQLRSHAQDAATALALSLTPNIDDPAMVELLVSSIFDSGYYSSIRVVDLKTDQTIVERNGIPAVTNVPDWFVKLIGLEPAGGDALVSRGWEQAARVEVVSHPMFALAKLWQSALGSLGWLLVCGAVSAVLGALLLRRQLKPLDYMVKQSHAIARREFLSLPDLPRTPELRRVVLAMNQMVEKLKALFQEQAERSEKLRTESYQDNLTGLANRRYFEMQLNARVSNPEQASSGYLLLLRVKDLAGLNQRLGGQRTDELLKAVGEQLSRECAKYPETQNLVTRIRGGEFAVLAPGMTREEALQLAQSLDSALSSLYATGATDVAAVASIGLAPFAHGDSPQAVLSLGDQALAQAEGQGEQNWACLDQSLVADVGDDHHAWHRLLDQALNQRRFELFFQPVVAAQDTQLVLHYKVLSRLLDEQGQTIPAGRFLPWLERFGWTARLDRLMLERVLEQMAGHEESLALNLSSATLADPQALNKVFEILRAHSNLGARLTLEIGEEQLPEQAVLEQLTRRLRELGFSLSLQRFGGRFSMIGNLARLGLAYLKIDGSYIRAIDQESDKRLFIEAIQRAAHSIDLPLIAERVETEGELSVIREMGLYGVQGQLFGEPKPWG
T1 sequence (Q3KK32 50-251 partner): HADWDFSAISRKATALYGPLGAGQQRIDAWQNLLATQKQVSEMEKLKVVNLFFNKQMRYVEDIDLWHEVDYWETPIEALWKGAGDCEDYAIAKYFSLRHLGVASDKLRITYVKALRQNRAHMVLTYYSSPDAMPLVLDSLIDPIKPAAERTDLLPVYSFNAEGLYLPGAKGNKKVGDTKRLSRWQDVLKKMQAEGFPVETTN

[2] = target: full-length P. fluorescens LapD fused C-terminally to superfolder GFP (LapD-sfGFP), wild type (P. fluorescens) (UniProt Q3KK31); experiment: cross-linking

| Compound | switch in LapG cross-linking [1] [µM] | other (LapG:LapD molar ratio) [2] |
| --- | --- | --- |
| Nc1nc2c(ncn2[C@@H]2O[C@@H]3COP(=O)(O)O[C@H]4[C@@H](O)[C@H](n5cnc6c(=O)[nH]c(N)nc65)O[C@@H]4COP(=O)(O)O[C@H]3[C@H]2O)c(=O)[nH]1 [c-di-GMP] | 0.75 to 1 | – |
| non-fluorescent P. fluorescens LapG with pAzF at Y206 (enzyme) | – | 0.3 and 0.5 |
